B1: CPR-4: S. cerevisiae NCP1, Accession No. YHR042W (protein, UniProt P16603 2-691, looked up)
NADPH--cytochrome P450 …: PFGIDNTDFTVLAGLVLAVLLYVKRNSIKELLMSDDGDITAVSSGNRDIAQVVTENNKNYLVLYASQTGTAEDYAKKFSKELVAKFNLNVMCADVENYDFESLNDVPVIVSIFISTYGEGDFPDGAVNFEDFICNAEAGALSNLRYNMFGLGNSTYEFFNGAAKKAEKHLSAAGAIRLGKLGEADDGAGTTDEDYMAWKDSILEVLKDELHLDEQEAKFTSQFQYTVLNEITDSMSLGEPSAHYLPSHQLNRNADGIQLGPFDLSQPYIAPIVKSRELFSSNDRNCIHSEFDLSGSNIKYSTGDHLAVWPSNPLEKVEQFLSIFNLDPETIFDLKPLDPTVKVPFPTPTTIGAAIKHYLEITGPVSRQLFSSLIQFAPNADVKEKLTLLSKDKDQFAVEITSKYFNIADALKYLSDGAKWDTVPMQFLVESVPQMTPRYYSISSSSLSEKQTVHVTSIVENFPNPELPDAPPVVGVTTNLLRNIQLAQNNVNIAETNLPVHYDLNGPRKLFANYKLPVHVRRSNFRLPSNPSTPVIMIGPGTGVAPFRGFIRERVAFLESQKKGGNNVSLGKHILFYGSRNTDDFLYQDEWPEYAKKLDGSFEMVVAHSRLPNTKKVYVQDKLKDYEDQVFEMINNGAFIYVCGDAKGMAKGVSTALVGILSRGKSITTDEATELIKMLKTSGRYQEDVW
B2: codon-optimized UGT85C2: UGT85C2 expressed from the GeneArt codon-optimized sequence; amino acid sequence unchanged (protein, UniProt Q6VAB0 1-481, looked up)
UDP-glycosyltransferase 85C2: MDAMATTEKKPHVIFIPFPAQSHIKAMLKLAQLLHHKGLQITFVNTDFIHNQFLESSGPHCLDGAPGFRFETIPDGVSHSPEASIPIRESLLRSIETNFLDRFIDLVTKLPDPPTCIISDGFLSVFTIDAAKKLGIPVMMYWTLAACGFMGFYHIHSLIEKGFAPLKDASYLTNGYLDTVIDWVPGMEGIRLKDFPLDWSTDLNDKVLMFTTEAPQRSHKVSHHIFHTFDELEPSIIKTLSLRYNHIYTIGPLQLLLDQIPEEKKQTGITSLHGYSLVKEEPECFQWLQSKEPNSVVYVNFGSTTVMSLEDMTEFGWGLANSNHYFLWIIRSNLVIGENAVLPPELEEHIKKRGFIASWCSQEKVLKHPSVGGFLTHCGWGSTIESLSAGVPMICWPYSWDQLTNCRYICKEWEVGLEMGTKVKRDEVKRLVQELMGEGGHKMRNKAKDWKEKARIAIAPNGSSSLNIDKMVKEITVLARN

Legend:
S. cerevisiae = test: Toxicity of intermediates: growth of S. cerevisiae CEN.PK; format: cell-based; settings: growth of CEN.PK transformants
Source text: The effect on S. cerevisiae vitality of geranyl geranyl pyrophosphate (GGPP), ent-copalyl diphosphate (CDP) or ent-kaurene production was investigated by expression of Synechococcus sp GGPPS alone (GGPP production), the GGPPS and the 50 amino acid N-terminally truncated Zea mays CDPS (see Example 16) together (CDP production), or the GGPPS, truncated CDPS and the Arabidopsis thaliana kaurene synthase (KS5) together (ent kaurene production) in the laboratory S. cerevisiae strain CEN.PK background. Genes were expressed from 2μ plasmids with GPD promoters driving transcription of truncated CDPS and KS5, while transcription of the GGPPS was driven by the ADH1 promoter. The growth of S. cerevisiae CEN.PK transformed with various combinations of these plasmids (GGPPS alone; GGPPS+truncated CDPS; or GGPPS+truncated CDPS+KS5) or plasmids without gene insertions was observed. GGPP production, and especially CDP production, was toxic to S. cerevisiae when produced as end products.

[1] = system: Stevia rebaudiana kaurene oxidase; test: Ent-kaurenoic acid accumulation in EFSC2386 with different CPRs (activation of KO1); format: cell-based, S. cerevisiae; settings: LC-MS peak area; with KO-1 in EFSC2386
Source text: The CEN.PK S. Cerevisiae EFSC2386 strain and the CPRs referred to in this Example are described in the Example 11 (“Identification of S. rebaudiana KAH”). EFSC2386 contained the following integrated genes: Aspergillus nidulans Geranyl geranyl pyrophosphate synthase (GGPPS); Zea mays ent-copalyl diphosphate synthase (CDPS); Stevia rebaudiana ent-kaurene synthase (KS); and Stevia rebaudiana ent-kaurene oxidase (KO). This strain produces ent-kaurenoic acid that was detected by LC-MS analysis.
A collection of cytochrome P450 reductases (CPRs) were expressed and tested in strain EFSC2386; “CPR1” (S. rebaudiana NADPH dependent cytochrome P450 reductase, Kumar et al., Accession no. DQ269454); “ATR1” (A. thaliana CPR, Accession No. CAA23011); “ATR2” (A. thaliana CPR, Accession No. CAA46815); “CPR7” (S. rebaudiana CPR, CPR7 is similar to “CPR1”); “CPR8” (S. rebaudiana CPR, similar to Artemisia annua CPR; and “CPR4” (S. cerevisiae NCP1, Accession No. YHR042W).
Overexpression of the S. cerevisiae endogenous native CPR (referred to as CPR4 in Table 14), and especially overexpression of one of the A. thaliana CPRs namely ATR2, gives good activation of the Stevia rebaudiana kaurene oxidase (the latter called KO1 in Table 14) and results in increased accumulation of ent-kaurenoic acid. See Table 14, which presents the area under curve (AUC) of the ent-kaurenoic acid peak in the LC-MS chromatograms. KO1 is an ent-kaurenoic acid producing yeast control strain without additional overexpression of CPRs.

RebA solubility in water = format: physicochemical
Experimental: The solubility of RebA determines the concentration that can be used both for the whole-cell approach and for the cell-free approach. Several different solutions of RebA in water were made and left at room temperature for several days. After 24 hours of storage, RebA precipitated at concentrations of 50 mM or higher. Twenty-five mM RebA started to precipitate after 4-5 days, while 10 mM or lower concentrations remained in solution, even when stored at 4° C.

[2] = system: S. cerevisiae strain BY4741; test: Steviol-feeding experiment of S. cerevisiae strain BY4741; format: cell-based
Experimental: Further experiments were conducted to determine if the codon-optimized UGT85C2 could reduce 19-SMG accumulation and increase rubusoside and higher glycosylated steviol glycosides production. The production of 19-SMG and rubusoside were analysed in a steviol-feeding experiment of S. cerevisiae strain BY4741 expressing the wild type UGT74G1 as well as the codon-optimized UGT85C2 from high copy (2p) vectors under strong constitutive promoter (GPD1) (vectors P426-GPD and P423-GPD, respectively). Whole culture samples (without cell removal) were taken and boiled in an equal volume of DMSO for total glycosides levels. Intracellular concentrations reported were obtained by pelleting cells, and resuspending in 50% DMSO to the volume of the original culture sample taken, followed by boiling. The “total” glycosides level and the normalized intracellular level then were measured using LC-MS. Using wild type UGT74G1 and wild type UGT85C2, approximately 13.5 μM rubusoside was produced in total with a maximum normalized intracellular concentration of about 7 μM. In contrast, when wild type UGT74G1 and codon-optimized UGT85C2 were used, a maximum of 26 μM rubusoside was produced, or approximately double of what was produced using the wild type UGT85C2. Additionally, the maximum normalized intracellular concentration of rubusoside was 13 μM, again an approximate doubling of what was produced using wild type UGT85C2. […] Consequently, about 10 μM less total 19-SMG was measured for the codon-optimized UGT85C2.

[3] = co-expressed with wild type UGT74G1, steviol feeding

Sequence of Stevia rebaudiana kaurene oxidase (as listed by the source): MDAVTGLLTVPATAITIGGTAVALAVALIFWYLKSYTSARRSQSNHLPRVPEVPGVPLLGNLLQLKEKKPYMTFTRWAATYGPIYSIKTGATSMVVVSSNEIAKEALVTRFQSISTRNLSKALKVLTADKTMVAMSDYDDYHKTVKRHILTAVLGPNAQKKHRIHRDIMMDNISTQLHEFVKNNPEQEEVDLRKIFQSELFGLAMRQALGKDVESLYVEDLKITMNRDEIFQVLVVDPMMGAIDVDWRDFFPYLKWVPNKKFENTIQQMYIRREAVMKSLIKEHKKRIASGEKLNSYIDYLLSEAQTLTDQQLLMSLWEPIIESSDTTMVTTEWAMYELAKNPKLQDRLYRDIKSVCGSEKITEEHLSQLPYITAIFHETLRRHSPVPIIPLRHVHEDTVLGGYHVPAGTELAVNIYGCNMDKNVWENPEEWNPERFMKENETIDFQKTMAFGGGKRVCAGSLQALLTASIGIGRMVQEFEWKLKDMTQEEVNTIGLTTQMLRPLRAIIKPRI

Molecule | toxicity to S. cerevisiae when produced as end product (S. cerevisiae) | Ent-Kaurenoic Acid (AUC) [1] | other results
C=C1CC[C@@H]2C(C)(C)CCC[C@@]2(C)[C@@H]1CC/C(C)=C/COP(=O)(O)OP(=O)(O)O [CDP, ent-copalyl diphosphate] | toxic |  | 
ATR-2: A. thaliana CPR, Accession No. CAA46815 |  | 29412 AUC | 
C=C1C[C@@]23CC[C@@H]4C(C)(C)CCC[C@@]4(C)[C@@H]2CC[C@@H]1C3 [ent-kaurene] | not be toxic |  | 
CPR-1: S. rebaudiana NADPH dependent cytochrome P450 reductase, Accession no. DQ269454 |  | 14113 AUC | 
CC(C)=CCC/C(C)=C/CC/C(C)=C/CC/C(C)=C/COP(=O)(O)OP(=O)(O)O [GGPP, geranyl geranyl pyrophosphate] | toxic |  | 
C=C1C[C@@]23CC[C@H]4[C@@](C)(CCC[C@@]4(C)C(=O)O[C@@H]4O[C@H](CO)[C@@H](O)[C@H](O)[C@H]4O)[C@@H]2CC[C@]1(O[C@@H]1O[C@H](CO)[C@@H](O)[C@H](O[C@@H]2O[C@H](CO)[C@@H](O)[C@H](O)[C@H]2O)[C@H]1O[C@@H]1O[C@H](CO)[C@@H](O)[C@H](O)[C@H]1O)C3 [RebA, Rebaudioside A] |  |  | time until precipitation started (RebA solubility in water; Twenty-five mM RebA in water): 4 to 5 days; concentration at which RebA precipitated (RebA solubility in water; water, room temperature, after 24 hours of storage): ≥ 50000 µM; concentration that remained in solution (RebA solubility in water; water, several days, even when stored at 4° C.): ≥ 10000 µM
CPR-8: S. rebaudiana CPR, similar to Artemisia annua CPR |  | 12590 AUC | 
B1 |  | 25103 AUC | 
B2 |  |  | less total 19-SMG than with wild type UGT85C2 [2]: about 10 μM; maximum intracellular concentration of 19-SMG [2, 3]: 19 µM; maximum normalized intracellular concentration of rubusoside [2, 3]: 13 µM; rubusoside produced in total [2, 3]: 26 µM

Reference: patent US12416034B2, “Recombinant production of steviol glycosides” (EVOLVA SA, priority 2011, dated 2025)
